Assay results reported in patent publication US6689883B1, “Substituted pyridines and pyridazines with angiogenesis inhibiting activity” (Bayer Pharmaceuticals Corporation, priority 1999, dated 2004).

Target: T1, cytosolic kinase domain of KDR kinase (Homo sapiens, UniProt P35968)
T1 construct: The cytosolic kinase domain of KDR kinase was expressed as a 6His fusion protein in Sf9 insect cells; 6His; made in house; host or cells: Sf9 insect cells
Assay: KDR Assay (ELISA, poly(Glu4;Tyr1) phosphorylation)
Type: biochemical
Conditions: 3.3 μM ATP, 60 minutes at room temperature
Method: The cytosolic kinase domain of KDR kinase was expressed as a 6His fusion protein in Sf9 insect cells. The KDR kinase domain fusion protein was purified over a Ni++ chelating column. Ninety-six well ELISA plates were coated with 5 μg poly(Glu4;Tyr1) (Sigma Chemical Co., St Louis, Mo.) in 100 μl HEPES buffer (20 mM HEPES, pH 7.5, 150 mM NaCl, 0.02% Thimerosal) at 4° overnight. Before use, the plate was washed with HEPES, NaCl buffer and the plates were blocked with 1% BSA, 0.1% Tween 20 in HEPES, NaCl buffer.
Test compounds were serially diluted in 100% DMSO from 4 mM to 0.12 μM in half-log dilutions. These dilutions were further diluted twenty fold in H2O to obtain compound solutions in 5% DMSO. Following loading of the assay plate with 85 μl of assay buffer (20 mM HEPES, pH 7.5, 100 mM KCl, 10 mM MgCl2, 3 mM MnCl2, 0.05% glycerol, 0.005% Triton X-100, 1 mM-mercaptoethanol, with or without 3.3 μM ATP), 5 μl of the diluted compounds were added to a final assay volume of 100 μl. Final concentrations were between 10 μM, and 0.3 nM in 0.25% DMSO. The assay was initiated by the addition of 10 μl (30 ng) of KDR kinase domain.
The assay was incubated with test compound or vehicle alone with gentle agitation at room temperature for 60 minutes. The wells were washed and phosphotyrosines (PY) were probed with an anti-phosphotyrosine (PY), mAb clone 4G10 (Upstate Biotechnology, Lake Placid, N.Y.). PY/anti-PY complexes were detected with an anti-mouse IgG/HRP conjugate (Amersham International plc, Buckinghamshire, England). Phosphotyrosine was quantitated by incubating with 100 μl 3,3′,5,5′tetramethylbenzidine solution (Kirkegaard and Perry, TMB Microwell 1 Component peroxidase substrate). Color development was arrested by the addition of 100 μl 1% HCl-based stop solution (Kirkegaard and Perry, TMB 1 Component Stop Solution).
Optical densities were determined spectrophotometrically at 450 nm in a 96-well plate reader, SpectraMax 250 (Molecular Devices). Background (no ATP in assay) OD values were subtracted from all ODs and the percent inhibition was calculated according to the equation: [formula]

T1 sequence (P35968 834-1162 limits assumed): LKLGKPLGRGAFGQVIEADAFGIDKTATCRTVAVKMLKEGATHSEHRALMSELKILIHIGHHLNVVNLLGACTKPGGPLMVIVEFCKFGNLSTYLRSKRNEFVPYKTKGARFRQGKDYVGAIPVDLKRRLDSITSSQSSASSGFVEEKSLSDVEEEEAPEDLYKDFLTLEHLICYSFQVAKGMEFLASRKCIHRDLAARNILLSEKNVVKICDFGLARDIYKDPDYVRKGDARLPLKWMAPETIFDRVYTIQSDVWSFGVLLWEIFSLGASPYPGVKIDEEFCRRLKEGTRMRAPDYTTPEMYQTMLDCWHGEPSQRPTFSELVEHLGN

| SMILES | IC50 [nM] |
| --- | --- |
| CNC(=O)c1cc(COc2nnc(Nc3ccc(F)c(F)c3)c3ccoc23)ccn1 [Example 47] | ≤ 100 |
| CNC(=O)c1cc(COc2nnc(Nc3ccc(O)cc3)c3ccoc23)ccn1 [Example 57] | ≤ 100 |
| Clc1ccc(Nc2nnc(Nc3ccc4ncsc4c3)c3sccc23)cc1 [Example 17, 4-(4-chlorophenylamino)-7-(benzothiazol-6-ylamino)thieno[2,3-d]pyridazine] | ≤ 100 |
| c1cc2c(Nc3ccc4nn[nH]c4c3)nnc(Nc3ccc4nn[nH]c4c3)c2o1 [Example 29] | > 1000 |
| CNC(=O)c1cc(COc2nnc(Nc3ccc(Br)cc3)c3ccoc23)ccn1 [Example 38] | ≤ 100 |
| CNC(=O)c1cc(COc2nnc(Nc3ccc(C(F)(F)F)cc3)c3ccoc23)ccn1 [Example 42] | ≤ 100 |
| COc1ccc(Nc2nnc(OCc3ccnc(C(N)=O)c3)c3occc23)cc1 [Example 22, 4-(4-methoxyphenylamino)-7-(2-aminocarbonyl4-pyridylmethoxy)furo-[2,3-d]pyridazine] | ≤ 100 |
| CNC(=O)c1cc(COc2nnc(Nc3ccc(Cl)c(Cl)c3)c3ccoc23)ccn1 [Example 53] | ≤ 100 |
| c1nc2c(Nc3ccc4nn[nH]c4c3)nnc(Nc3ccc4nn[nH]c4c3)c2[nH]1 [Example 31] | > 1000 |
| CNC(=O)c1cc(COc2nnc(Nc3ccc(N(C)C)cc3)c3ccoc23)ccn1 [Example 41] | > 1000 |
| Brc1ccc2c(c1)CCN2c1nnc(OCc2ccncc2)c2occc12 [Example 19, 4-(5-bromoindolin-1-yl)-7-(4-pyridylmethoxy)furo[2,3-d]pyridazine] | ≤ 100 |
| CNC(=O)c1cc(COc2nnc(Nc3ccc(C)c(OC)c3)c3ccoc23)ccn1 [Example 60] | ≤ 100 |
| CNC(=O)c1cc(COc2nnc(Nc3ccc(F)cc3)c3ccoc23)ccn1 [Example 37] | ≤ 100 |
| CNC(=O)c1cc(COc2nnc(Nc3cccc(C)c3)c3ccoc23)ccn1 [Example 40] | ≤ 100 |
| NC(=O)c1cc(Cc2cnc(Nc3ccc(Cl)cc3)c3ccccc23)ccn1 [Example 12, 1-(4-chlorophenylamino)-4-(2-aminocarbonyl-4-pyridylmethyl)isoquinoline] | ≤ 100 |
| COc1ccc(Nc2nnc(OCc3ccncc3)c3occc23)cc1 [Example 56] | ≤ 100 |
| Cc1ccc(Nc2ncc(Cc3ccncc3)c3ccccc23)cc1F [Example 7, 1-(3-fluoro-4-methylphenylamino)-4-(4-pyridylmethyl)-isoquinoline] | 100 to 1000 |
| Clc1ccc(Nc2ncc(Cc3ccncc3)c3ccccc23)cc1 [Example 4, 1-(4-chlorophenylamino)-4-(4-pyridylmethyl)isoquinoline] | ≤ 100 |

Next, values leading:

| IC50 [nM] | SMILES |
| --- | --- |
| ≤ 100 | CNC(=O)c1cc(COc2nnc(Nc3ccc4c(c3)CCO4)c3ccoc23)ccn1 [Example 65] |
| ≤ 100 | FC1(F)Oc2ccc(Nc3nnc(Nc4ccc5ncsc5c4)c4ccccc34)cc2O1 [Example 98] |
| ≤ 100 | CNC(=O)c1cc(COc2nnc(Nc3ccc4c(c3)OCO4)c3ccsc23)ccn1 [Example 74] |
| ≤ 100 | CNC(=O)c1cc(COc2nnc(Nc3ccc(C(F)(F)F)cc3)c3ccsc23)ccn1 [Example 71] |
| > 1000 | COc1cc(Nc2nnc(Nc3ccc4ncsc4c3)c3sccc23)cc(OC)c1OC [Example 80] |
| ≤ 100 | O=C(NC1CC1)c1cc(COc2nnc(Nc3ccc(Cl)cc3)c3ccoc23)ccn1 [Example 82B] |
| ≤ 100 | c1nc2ccc(Nc3nnc(Nc4ccc5ncsc5c4)c4sccc34)cc2s1 [Example 75] |
| ≤ 100 | Cc1ccc(Nc2nnc(Nc3ccc4ncsc4c3)c3sccc23)c(C)c1 [Example 78] |
| ≤ 100 | CNC(=O)c1cc(COc2nnc(Nc3cccc(C)c3)c3ccsc23)ccn1 [Example 68] |
| ≤ 100 | CNC(=O)c1cc(COc2nnc(Nc3ccc(OC(F)(F)F)cc3)c3ccsc23)ccn1 [Example 70] |
| ≤ 100 | CNC(=O)c1cc(COc2nnc(Nc3ccc4sc(C)nc4c3)c3ccoc23)ccn1 [Example 62] |
| ≤ 100 | O=C(NCCO)c1cc(COc2nnc(Nc3ccc(Cl)cc3)c3ccoc23)ccn1 [Example 82C] |
